The target in experiment [1] is T1, SARS-CoV-2 M^Pro (Severe acute respiratory syndrome coronavirus 2, UniProt P0DTD1). To be noted: read-out: IC50 against M^Pro; previously published inhibitors; cited from earlier work.
Experiment [2] has as its target M^Pro-eGFP fusion protein transiently expressed in 293T cells (Severe acute respiratory syndrome coronavirus 2, UniProt P0DTD1). The experiment is classed as cell-based, SARS-CoV-2. To be noted: read-out: Cellular EC50.
Experiment [3] addresses T1, SARS-CoV-2 M^Pro. The experiment is described as follows: In vitro M^Pro inhibition potency (enzymatic IC50, fluorogenic substrate Sub3). In kind it is biochemical. To be noted: 20 nM M^Pro, 10 μM Sub3, 30 min preincubation, pH 7.6.

Where two headings read alike, the source gives them in different places. Some results are limits rather than exact numbers.

Usually IC50 stands for the point on the concentration scale where inhibition reaches its midpoint. As a reminder, the EC50 is the concentration giving half of the maximal effect.

Consider `CC(C)(C)C[C@H](NC(=O)OCc1ccccc1)C(=O)N[C@H](C=O)C[C@@H]1CCNC1=O` [MPI50], for which, in experiment [1], the IC50 was 53 nM.
On to `CC1(C)[C@@H]2[C@@H](C(=O)N[C@H](C=O)C[C@@H]3CCNC3=O)N(C(=O)OC(c3ccccc3)c3ccccc3)C[C@@H]21` [MPI94], for which the EC50 in experiment [2] was 900 nM.
Still for that read-out and setting: to `CC1(C)[C@@H]2[C@@H](C(=O)N[C@H](C=O)C[C@@H]3CCNC3=O)N(C(=O)OC(c3ccc(F)cc3)c3ccc(F)cc3)C[C@@H]21` [MPI95] belongs 910 nM; to `CC1(C)[C@@H]2[C@@H](C(=O)N[C@H](C=O)C[C@@H]3CCNC3=O)N(C(=O)C(c3ccc(Cl)cc3)c3ccc(Cl)cc3)C[C@@H]21` [MPI96], 2900 nM.
Still for that read-out and setting: the same measure for `CC1(C)[C@@H]2[C@@H](C(=O)N[C@H](C=O)C[C@@H]3CCNC3=O)N(C(=O)N(c3ccc(Cl)cc3)c3ccc(Cl)cc3)C[C@@H]21` [MPI97]: 1100 nM; for `CC1(C)[C@@H]2[C@@H](C(=O)N[C@H](C=O)C[C@@H]3CCNC3=O)N(C(=O)C(Oc3ccc(Cl)cc3)Oc3ccc(Cl)cc3)C[C@@H]21` [MPI98]: 490 nM.
With `CC1(C)[C@@H]2[C@@H](C(=O)N[C@H](C=O)C[C@@H]3CCNC3=O)N(C(=O)[C@H](Cc3ccccc3)NC(=O)OCc3ccccc3)C[C@@H]21` [MPI99], the EC50 in experiment [2] was above 5000 nM. The compound also came in with an IC50 in experiment [3] of 270 nM.
For `CC1(C)[C@@H]2[C@@H](C(=O)N[C@H](C=O)C[C@@H]3CCNC3=O)N(C(=O)[C@H](CC3CCCCC3)NC(=O)OCc3ccccc3)C[C@@H]21` [MPI100], the EC50 in experiment [2] came to 140 nM.
For `CC(C)(C)C[C@H](NC(=O)OCc1cccnc1)C(=O)N[C@H](C=O)C[C@@H]1CCNC1=O` [MPI101], the EC50 in experiment [2] was above 5000 nM. The compound further yielded an IC50 in experiment [3] of 20 nM.
For `CC1(C)[C@@H]2[C@@H](C(=O)N[C@H](C=O)C[C@@H]3CCNC3=O)N(C(=O)OCc3cccnc3)C[C@@H]21` [MPI102] the same measures were above 5000 nM and 28 nM.
For `CC1(C)[C@@H]2[C@@H](C(=O)N[C@H](C#N)C[C@@H]3CCNC3=O)N(C(=O)OCc3cccnc3)C[C@@H]21` [MPI103] the same measures were above 5000 nM and 28 nM.
`CC(C)(C)C[C@H](NC(=O)[C@@H]1CC[C@@H]1c1ccccc1)C(=O)N[C@H](C=O)C[C@@H]1CCNC1=O` [MPI104]: the EC50 in experiment [2] was above 5000 nM. The compound also returned an IC50 in experiment [3] of 79 nM.
Regarding `CC(C)(C)C[C@H](NC(=O)N1CC[C@@H]1c1ccccc1)C(=O)N[C@H](C=O)C[C@@H]1CCNC1=O` [MPI105], the EC50 in experiment [2] was above 5000 nM. This compound displayed an IC50 in experiment [3] of 39 nM.
Take `CC1(C)[C@@H]2[C@@H](C(=O)N[C@H](C#N)C[C@@H]3CCNC3=O)N(C(=O)[C@@H](NC(=O)C(F)(F)F)c3ccc(Cl)cc3)C[C@@H]21` [MPI106]: the EC50 in experiment [2] was above 5000 nM.
On to `CC1(C)[C@@H]2[C@@H](C(=O)N[C@H](C#N)C[C@@H]3CCNC3=O)N(C(=O)[C@@H](NC(=O)C(F)(F)F)c3ccc(Cl)c(Cl)c3)C[C@@H]21` [MPI108], for which the EC50 in experiment [2] was above 5000 nM.
